Experiments:
Format in all cases: in vivo
[1] = test system: Hybrid corn seeds (92L90); experiment: Greenhouse corn seed treatment, plant dry weight (Example 1); conditions: seed treatment solution 10^-8 M
Description: Two seed treatment experiments using only Pea LCO, Pea CO and the CO mixtures obtained from chitosan by enzymatic process (structurally distinct from the Pea CO, and also referred to in the examples as the “China CO”) were performed in greenhouse. Hybrid corn seeds (92L90, Peterson Farm, USA) were treated with treatment solution (10^-8 M) at the rate of 3 fl oz/100 lbs of seed. Seeds were planted in plastic pots containing 1:1 Sand:Perlite mixture. Seeds were allowed to grow for about 3-4 weeks and then they were harvested and their dry weight measured.

[2] = test system: Corn seeds; experiment: Corn seed germination in petriplates (Example 2); conditions: 5 days after plating
Description: Corn seeds were plated in petriplates containing 5 ml of treatment solution on a filter paper. Corn seeds were placed on moist filter paper for germination. Similarly, wheat seeds (spring wheat) were placed in petriplates. […] Roots were harvested and their length measured by WinRhizo system.

[3] = test system: Corn seeds; experiment: Greenhouse corn seed application, seedling dry weight (Example 3); conditions: alone at 10^−8 M; harvested 10 days after planting (FIG. 9)
Description: Corn seeds were treated with various combinations of Pea CO (10^-8 M) and Pea LCO (10-8, 10^-9 M). Seeds were planted in greenhouse plastic pots containing 1:1 sand:perlite mixture. Seedlings were harvested 10 days after planting, washed clean and then dried in an oven at 60 C for 48 hr.

[4] = test system: corn foliage; experiment: Field trials, grain yield when applied to corn foliage (Example 4)
[5] = test system: corn seed; experiment: Field trials, grain yield when applied to corn seed before planting (Example 5)
[6] = seed treatment, CO compared to LCO, less

Question: Which results are given for `CC(=O)NC1C(O)OC(CO)C(OC2OC(CO)C(OC3OC(CO)C(OC4OC(CO)C(OC5OC(CO)C(O)C(O)C5N)C(O)C4NC(C)=O)C(O)C3NC(C)=O)C(O)C2NC(C)=O)C1O` (stereo not shown) [CO (CO-V)]?
Answer: shoot, root and total biomass / plant dry weight compared to LCO ([1]; both experiments): greater shoot, root and total biomass increase over non-inventive and comparable LCO; dry weight increase over LCO ([1]; first trial (FIG. 5), 3 fl oz/100 lbs of seed, harvested after about 3-4 weeks): 11.84%; dry weight-increase over LCO ([1]; second trial (FIG. 6), 3 fl oz/100 lbs of seed, harvested after about 3-4 weeks): 12.63%; seed germination ([2]; 5 ml treatment solution on filter paper, vs control (FIG. 7)): increased germination; seedling root length ([2]; WinRhizo system, vs control): significantly increased seedling root length over control; corn seedling dry weight [3]: increased corn seedling dry weight; yield enhancement as a foliar treatment [4]: performed at least twice better than the LCO; CO mean yield better than foliar LCO response ([4]; CO compared to LCO): 5.0 bu/A; YIELD, Response Increase (% of Control) ([4]; foliar): 4.8 % of Control; YIELD, Mean (N = 16) ([4]; foliar, 4 ounces per acre with glyphosate herbicide, 16 field trials): 201.8 bu/A; higher yield increase than LCO ([4]; foliar, CO compared to LCO): 2.6%; trials with a positive response, better than LCO ([4]; foliar, CO compared to LCO): 18.8%; Positive Yield Response (%) ([4]; foliar, share of the 16 trials with positive yield enhancement): 93.8%; YIELD, Response (bu/A) ([4]; foliar, versus Control (water)): 9.2 bu/A; YIELD, Response Increase (% of Control) ([5]; seed treatment): 3.6 % of Control; yield enhancement when applied to corn seed ([5]; seed treatment): provided yield enhancement above the Control; YIELD, Mean (N = 10) ([5]; seed treatment 1×10-8 molar, 1 μg/acre, 3 fluid ounces per 50 pounds of seed, 10 field trials): 188.0 bu/A; CO mean yield less than LCO [5, 6]: 4.6 bu/A; less positive yield responses than LCO [5, 6]: 10.0%; less yield increase above the Control than LCO [5, 6]: 2.5%; Positive Yield Response (%) ([5]; seed treatment, share of the 10 trials with positive yield enhancement): 80.0%; YIELD, Response (bu/A) ([5]; seed treatment, versus Control (water)): 6.5 bu/A
